Assay [1] deals with T1, human type 1 5α-reductase (Homo sapiens, UniProt P18405).
T1 sequence (P18405 1-259): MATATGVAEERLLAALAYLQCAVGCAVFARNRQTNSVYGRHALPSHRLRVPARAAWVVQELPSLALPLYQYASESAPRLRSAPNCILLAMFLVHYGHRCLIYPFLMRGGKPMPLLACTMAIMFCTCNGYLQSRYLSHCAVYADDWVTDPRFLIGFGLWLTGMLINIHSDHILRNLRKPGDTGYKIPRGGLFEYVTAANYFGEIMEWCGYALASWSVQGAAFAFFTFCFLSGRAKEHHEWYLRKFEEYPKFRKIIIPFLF
In words: 5α-reductase in vitro inhibitory activity, human type 1.
Description: (§1) Microsomes were prepared by homogenization of the tissue or cells, followed by differential centrifugation of the homogenate. […] Corresponding incubations were carried out with no test compound as a control study.
For type 2 IC50 measurements, assay components except testosterone were preincubated for 20 minutes at pH 6.0, and following the addition of 8nM testosterone the assays were allowed to proceed for 20-40 minutes. The percentage of conversion of testosterone to DHT in the presence of test compounds compared to the corresponding conversion in the control study was estimated using high pressure liquid chromatography (HPLC) with radiochemical detection.

Assay [2] has as its target T2, human type 2 5α-reductase (Homo sapiens, UniProt P31213).
T2 sequence (P31213 1-254): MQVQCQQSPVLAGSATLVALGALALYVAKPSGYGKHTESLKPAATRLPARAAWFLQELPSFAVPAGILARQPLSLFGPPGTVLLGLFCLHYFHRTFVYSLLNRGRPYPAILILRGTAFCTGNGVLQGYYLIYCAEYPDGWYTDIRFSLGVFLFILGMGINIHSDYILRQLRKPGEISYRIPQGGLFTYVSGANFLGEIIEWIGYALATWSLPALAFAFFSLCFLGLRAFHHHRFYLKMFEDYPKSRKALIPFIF
In words: 5α-reductase in vitro inhibitory activity, human type 2.
Description: as §1
The percentage of conversion of testosterone to DHT in the presence of test compounds compared to the corresponding conversion in the control study was estimated using high pressure liquid chromatography (HPLC) with radiochemical detection.

Where only a bound is given, the exact number is not on record here.

The IC50 is the concentration needed to halve the response being measured. On to `CC(C)(C)c1ccc(C#N)cc1NC(=O)[C@H]1CC[C@H]2[C@@H]3CNC4=CC(=O)CC[C@]4(C)[C@H]3CC[C@]12C` [Compound 78, 17β-N-(2-t-Butyl-5-cyano)phenyl-carbamoyl-6-azaandrost-4-en-3-one], for which the 50% inhibitory concentration (IC50) is 10 to 100 nM in assay [1] and less than 10 nM in assay [2].

For `Cc1ccc(Oc2ccc(C(F)(F)F)cc2NC(=O)[C@H]2CC[C@H]3[C@@H]4CNC5=CC(=O)CC[C@]5(C)[C@H]4CC[C@]23C)cc1` [Compound 79, 17β-N-(2-(O-4-Tolyl)-5-trifluoromethyl)phenyl-carbamoyl-6-azaandrost-4-en-3-one], the 50% inhibitory concentration (IC50) in assay [1] is 10 to 100 nM; in assay [2], less than 10 nM.

For `COc1ccccc1Oc1ccc(C(F)(F)F)cc1NC(=O)[C@H]1CC[C@H]2[C@@H]3CNC4=CC(=O)CC[C@]4(C)[C@H]3CC[C@]12C` [Compound 80], the half-inhibitory concentration (IC50) in assay [1] is 10 to 100 nM; in assay [2], less than 10 nM.

For `C[C@]12CC[C@H]3[C@@H](CNC4=CC(=O)CC[C@@]43C)[C@@H]1CC[C@@H]2C(=O)Nc1cc(C(F)(F)F)ccc1Oc1ccc(Cl)cc1` [Compound 81, 17β-N-(2-(O-4-Chlorophenyl)-5-trifluoromethyl)phenyl-carbamoyl-6-azaandrost-4-en-3-one], the 50% inhibitory concentration (IC50) in assay [1] was 10 to 100 nM; in assay [2] it was less than 10 nM.

Take `CC(C)(C)c1ccc(NC(=O)[C@H]2CC[C@H]3[C@@H]4CNC5=CC(=O)CC[C@]5(C)[C@H]4CC[C@]23C)c([N+](=O)[O-])c1` [Compound 82, 17β-N-(2-Nitro-4-t-butyl)phenyl-carbamoyl-6-azaandrost-4-en-3-one]: the IC50 in assay [1] and in assay [2] was less than 10 nM throughout.

With `CCC(C)(C)c1ccc(Oc2ccccc2)c(NC(=O)[C@H]2CC[C@H]3[C@@H]4CNC5=CC(=O)CC[C@]5(C)[C@H]4CC[C@]23C)c1` [Compound 83, 17β-N-(2-(O-Phenyl)-5-(1,1-dimethyl)propyl)phenyl-carbamoyl-6-azaandrost-4-en-3-one], the IC50 in assay [1] was 10 to 100 nM; in assay [2] it was less than 10 nM.

For the molecule `CCc1cc(C#N)ccc1NC(=O)[C@H]1CC[C@H]2[C@@H]3CNC4=CC(=O)CC[C@]4(C)[C@H]3CC[C@]12C` [Compound 84, 17β-N-(2-Ethyl-4-cyano)phenyl-carbamoyl-6-azaandrost-4-en-3-one], the IC50 in assay [1] is 10 to 100 nM; in assay [2] it was less than 10 nM.

For `CCS(=O)(=O)c1ccc(C(F)(F)F)cc1NC(=O)[C@H]1CC[C@H]2[C@@H]3CNC4=CC(=O)CC[C@]4(C)[C@H]3CC[C@]12C` [Compound 85, 17β-N-(2-Ethylsulfonyl-5-trifluoromethyl)phenyl-carbamoyl-6-azaandrost-4-en-3-one], the IC50 in assay [1] and in assay [2] was less than 10 nM in each case.

Take `CC(C)(C)c1cc(NC(=O)[C@H]2CC[C@H]3[C@@H]4CNC5=CC(=O)CC[C@]5(C)[C@H]4CC[C@]23C)cc(C(C)(C)C)c1` [Compound 86, 17β-N-(3,5-Di-t-butyl)phenyl-carbamoyl-6-azaandrost-4-en-3-one]: the IC50 in assay [1] and in assay [2] was less than 10 nM each time.

Regarding `CC(C)(C)c1ccc(C(F)(F)F)cc1NC(=O)[C@H]1CC[C@H]2[C@@H]3CNC4=CC(=O)CC[C@]4(C)[C@H]3CC[C@]12C` [Compound 87, 17β-N-(2-t-Butyl-5-trifluoromethyl)phenyl-carbamoyl-6-azaandrost-4-en-3-one], the half-maximal inhibitory concentration (IC50) in assay [1] and in assay [2] was less than 10 nM in each case.

For the molecule `CC(C)(C)c1ccc(-c2ccccc2)cc1NC(=O)[C@H]1CC[C@H]2[C@@H]3CNC4=CC(=O)CC[C@]4(C)[C@H]3CC[C@]12C` [Compound 88, 17β-N-(2-t-Butyl-5-phenyl)phenyl-carbamoyl-6-azaandrost-4-en-3-one], the IC50 in assay [1] and in assay [2] was less than 10 nM throughout.

Regarding `CC1CCC(C(C)C)C(OC(=O)OC[C@H]2CC[C@H]3[C@@H]4CNC5=CC(=O)CC[C@]5(C)[C@H]4CC[C@]23C)C1` (stereo partly drawn) [Compound 89, 17β-Hydroxymethyl-(menthylcarbonate)-6-azaandrost-4-en-3-one], the IC50 was 10 to 100 nM in assay [1] and less than 10 nM in assay [2].

With `C[C@]12CC[C@H]3[C@@H](CNC4=CC(=O)CC[C@@]43C)[C@@H]1CC[C@@H]2COC(=O)Oc1ccccc1` [Compound 90, 17β-Hydroxymethyl-(phenylcarbonate)-6-azaandrost-4-en-3-one], the 50% inhibitory concentration (IC50) in assay [1] and in assay [2] was less than 10 nM throughout.

With `CC(C)(C)c1ccc(NC(=O)[C@H]2CC[C@H]3[C@@H]4CNC5=CC(=O)CC[C@]5(C)[C@H]4CC[C@]23C)cc1[N+](=O)[O-]` [Compound 92, 17β-N-(3-Nitro-4-t-butyl)phenyl-carbamoyl-6-azaandrost-4-en-3-one], the half-maximal inhibitory concentration (IC50) in assay [1] is 10 to 100 nM; in assay [2], less than 10 nM.

For the molecule `CC1=C2NC[C@H]3[C@@H]4CC[C@H](C(=O)Nc5c(C(C)C)cccc5C(C)C)[C@@]4(C)CC[C@@H]3[C@@]2(C)C=CC1=O` [Compound 94, 17β-N-(2,6-Di-i-propyl)phenyl-carbamoyl-6-azaandrost-4-methyl-1,4-dien-3-one], the figures for the IC50 in assay [1] and in assay [2] were 10 to 100 nM and less than 10 nM, respectively.

Take `CC(C)NC(=O)N(C(=O)[C@H]1CC[C@H]2[C@@H]3CNC4=CC(=O)CC[C@]4(C)[C@H]3CC[C@]12C)C(C)C` [Compound 95, 17β-(N-i-Propyl-N-(N-i-propylcarbamoyl))-carbamoyl-6-azaandrost-4-en-3-one]: the IC50 in assay [1] was greater than 100 nM; in assay [2], 10 to 100 nM.

Consider `C[C@]12CC[C@H]3[C@@H](CNC4=CC(=O)CC[C@@]43C)[C@@H]1CC[C@@H]2C(=O)N(C(=O)NC1CCCCC1)C1CCCCC1` [Compound 96, 17β-(N-cyclohexyl-N-(N-cyclohexylcarbamoyl))-carbamoyl-6-azaandrost-4-en-3-one], for which the figures for the IC50 in assay [1] and in assay [2] were 10 to 100 nM and less than 10 nM, respectively.

As to `CC(=O)NC[C@H]1CC[C@H]2[C@@H]3CNC4=CC(=O)CC[C@]4(C)[C@H]3CC[C@]12C` [Compound 97, 17β-Aminomethyl-(acetamide)-6-azaandrost-4-en-3-one], the IC50 is greater than 100 nM in assay [1] and 10 to 100 nM in assay [2].

As to `C[C@]12CC[C@H]3[C@@H](CNC4=CC(=O)CC[C@@]43C)[C@@H]1CC[C@@H]2CNC(=O)NC12CC3CC(CC(C3)C1)C2` [Compound 98, 17β-Aminomethyl-(1-adamantylurea)-6-azaandrost-4-en-3-one], the IC50 in assay [1] and in assay [2] was less than 10 nM in each case.

Regarding `CC(C)c1cccc(C(C)C)c1NC(=O)OC[C@H]1CC[C@H]2[C@@H]3CNC4=CC(=O)CC[C@]4(C)[C@H]3CC[C@]12C` [Compound 99, 17β-Hydroxymethyl-(2,6-diisopropylphenylcarbamate)-6-azaandrost-4-en-3-one], the half-maximal inhibitory concentration (IC50) in assay [1] and in assay [2] was less than 10 nM each time.

`CC(C)(C)c1ccc(NC(=O)[C@H]2CC[C@H]3[C@@H]4CNC5=CC(=O)CC[C@]5(C)[C@H]4CC[C@]23C)c(C(F)(F)F)c1` [Compound 100, 17β-N-(4-t-Butyl-2-trifluoromethyl)phenyl-carbamoyl-6-azaandrost-4-en-3-one]: the IC50 in assay [1] and in assay [2] was less than 10 nM each time.

With `C[C@]12CC[C@H]3[C@@H](CNC4=CC(=O)CC[C@@]43C)[C@@H]1CC[C@@H]2C(=O)NC1(c2ccc(Cl)cc2Cl)CC1` [Compound 101, 17β-N-1-(2,4-Dichlorophenyl)cyclopropyl-carbamoyl-6-azaandrost-4-en-3-one], the IC50 in assay [1] and in assay [2] was less than 10 nM in each case.

For the molecule `C[C@]12CC[C@H]3[C@@H](CNC4=CC(=O)CC[C@@]43C)[C@@H]1CC[C@@H]2C(=O)NC1(c2cccc(C(F)(F)F)c2)CCCC1` [Compound 102, 17β-N-1-(3-Trifluoromethylphenyl)cyclopentyl-carbamoyl-6-azaandrost-4-en-3-one], the half-inhibitory concentration (IC50) in assay [1] and in assay [2] was less than 10 nM throughout.

Consider `CCC(CC)(NC(=O)[C@H]1CC[C@H]2[C@@H]3CNC4=CC(=O)CC[C@]4(C)[C@H]3CC[C@]12C)c1ccccc1` [Compound 103, 17β-N-(1-Ethyl-1-phenyl)propyl-carbamoyl-6-azaandrost-4-en-3-one], for which the IC50 in assay [1] is 10 to 100 nM; in assay [2], less than 10 nM.

`C[C@]12CC[C@H]3[C@@H](CNC4=CC(=O)CC[C@@]43C)[C@@H]1CC[C@@H]2C(=O)NC1(c2ccc(F)cc2)CCCC1` [Compound 104, 17β-N-1-(4-Fluorophenyl)cyclopentyl-carbamoyl-6-azaandrost-4-en-3-one]: the IC50 in assay [1] was 10 to 100 nM; in assay [2], less than 10 nM.

Take `CCN(CC)C(=O)c1ccc(C(C)(C)C)c(NC(=O)[C@H]2CC[C@H]3[C@@H]4CNC5=CC(=O)CC[C@]5(C)[C@H]4CC[C@]23C)c1` [Compound 105, 17β-N-(2-t-Butyl-5-N,N-diethylcarbamoyl)phenyl-carbamoyl-6-azaandrost-4-en-3-one]: the half-maximal inhibitory concentration (IC50) in assay [1] and in assay [2] was less than 10 nM each time.

For `C[C@]12CC[C@H]3[C@@H](CNC4=CC(=O)CC[C@@]43C)[C@@H]1CC[C@@H]2C(=O)NC1(c2ccc(C(F)(F)F)cc2)CCCC1` [Compound 106, 17β-N-1-(4-Trifluoromethylphenyl)cyclopentyl-carbamoyl-6-azaandrost-4-en-3-one], the IC50 in assay [1] and in assay [2] was less than 10 nM in each case.

Regarding `C[C@]12CC[C@H]3[C@@H](CNC4=CC(=O)CC[C@@]43C)[C@@H]1CC[C@@H]2C(=O)Nc1cccc(C#N)c1` [Compound 107, 17β-N-(3-Cyano)phenyl-carbamoyl-6-azaandrost-4-en-3-one], the IC50 is greater than 100 nM in assay [1] and less than 10 nM in assay [2].

Source of the values: patent publication EP0674651B1, “SUBSTITUTED 6-AZAANDROSTENONES” (priority 1992, dated 1994).
